e = 2'-O-(2-methoxyethyl) (MOE); d = 2'-deoxy (DNA); m = 2'-O-methyl
System: human FLCN protein
Experiment: Antisense inhibition of human FLCN in HEK293T cells, IC50 (Western blot)
Assay type: cell-based
Conditions: 0 nM to 100 nM ASO, Lipofectamine, 2-day incubation, FLCN protein by Western blot
Excerpt: The antisense oligonucleotides listed in this example have all nucleosides linked by modified phosphorothioate backbones. Bolded nucleosides presented in Table 17 indicate nucleosides that are modified with a 2′-MOE sugar modification. Underlined nucleosides presented in Table 17 indicate non-modified DNA nucleosides (deoxynucleotides). Nucleosides that are italicized indicate nucleosides with a 2′-OMe sugar modification. GI81, GI84, GI85, GI86, GI88, GI89 and GI90 are gapped sequences comprising a central sequence of deoxynucleotides, which are flanked on both sides by wing sequences consisting of 2′-MOE modified nucleotides, wherein the second nucleotide of the central sequence from the 5′ end of the oligonucleotide contains a 2′-OMe sugar modification.
These antisense oligonucleotides were tested in the human cell line HEK293T. HEK293T cells were seeded at 400,000 cells per well in a 6-well plate. After 1 day, various concentrations of antisense oligonucleotides ranging from 0 nM to 100 nM were transfected into the cells using Lipofectamine. After a 2-day incubation period, the cells were harvested to obtain whole cell lysates. The whole cell lysates were analyzed by Western blot and probed with a FLCN-specific antibody (CST #3697). The intensity of Western blot bands were quantified by FIJI (Image J) and used to quantify the expression levels of FLCN. The relative expression values of FLCN for the different treatment groups were calculated by normalizing with their respective α-Tubulin loading control, and presented as a percentage to that of the untreated control (which in this case comprised cells not transfected with ASOs). The potencies of these antisense oligonucleotides are reported in the form of IC50 values in Table 17.

**Q.** With “GI81: gapped phosphorothioate ASO, 2′-MOE wings, 2′-OMe at second gap nucleotide, TGGCTGATATATCCCGGG, Exon 5, SEQ ID NO 21 (sugars from the 5' end e4 d1 m1 d8 e4, all phosphorothioate, methylation of C not given here)” as the substance, how does the IC50 read?
**A.** 14 nM

**Q.** How did the IC50 turn out when “GI90: gapped phosphorothioate ASO, 2′-MOE wings, 2′-OMe at second gap nucleotide, CGGGTGCCCTGCAGCAAG, Exon 5, SEQ ID NO 618 (sugars from the 5' end e4 d1 m1 d8 e4, all phosphorothioate, methylation of C not given here)” was run?
**A.** 35 nM

**Q.** “GI88: gapped phosphorothioate ASO, 2′-MOE wings, 2′-OMe at second gap nucleotide, GCCTGGCGGACAATGCTG, Exon 5, SEQ ID NO 616 (sugars from the 5' end e4 d1 m1 d8 e4, all phosphorothioate, methylation of C not given here)” was tested. Which IC50 did it give?
**A.** 19 nM

Source: patent publication US20230272401A1, “COMPOSITIONS FOR FLCN GENE MODULATION AND METHODS THEREOF” (GENETIC INTELLIGENCE, INC, priority 2020, published 2023)
